Results: patent US8962552B2, “Nanoparticles of therapeutic agents having low water solubility” (Centre Nationale de Recherche Scientifique, priority 2007, dated 2015)
Blank lines part the entries; values can stand above or below the molecule they belong to.

Key:
[1] = Nanoparticle size, polydispersity index and surface potential by light scattering; type: physicochemical
Method: In general, the nanoparticles thus obtained have a mean size ranging from 30 to 650 nm, in particular from 30 to 500 nm and in particular from 50 to 250 nm, or even from 100 to 200 nm, measured by light scattering using a Coulter® N4MD nanosizer from Coulter Electronics, Hialeah, USA.
4 mg of squalenoylpaclitaxel are dissolved in […] of ethanol (2.5 mg/ml) and added dropwise with continuous stirring (speed of 500 rpm) to 1 ml of an aqueous solution containing 5% dextrose. The squalenoylpaclitaxel self-assembles in the form of nanoparticles with a size of between 100 and 200 nm. The ethanol is then completely evaporated off under reduced pressure using a Rotavapor® to obtain a nanoparticulate suspension of squalenoylpaclitaxel at a final concentration of 4 mg/ml.
Variable amounts (stated in Table 1 below) of squalenoylpaclitaxel are dissolved in 0.25 ml of tetrahydrofuran (THF). The solutions obtained are added dropwise with continuous stirring (speed of 500 rpm) to 0.25 ml of water. The squalenoylpaclitaxel precipitates in the form of nanoparticles between 100 and 200 nm in size. The THF is then completely evaporated off under reduced pressure using a Rotavapor® to obtain nanoparticulate squalenoylpaclitaxel suspensions whose size varies as a function of the concentration (see the table below).
100 μl of squalenoyldeoxyspergualine dissolved in ethanol (4 mg/ml) are added dropwise to 2 ml of distilled water with vigorous stirring. After evaporating off the ethanol under reduced pressure using a Rotavapor®, a suspension of nanoparticles 162 nm in size (polydispersity index 0.12 characterized by a surface potential of 27.38±2.60 mV) is obtained.
The mean size of the nanoparticles and the polydispersity index of the nanoparticles are determined at a temperature of 20° C. by light scattering with a zetasizer machine (Malvern Instruments, UK). The measurements are taken after diluting the nanoparticle suspension in MilliQ® water.

mice (C57BL6) = type: in vivo; conditions: 4 mg/ml suspension i.v., 4×50 mg/kg (paclitaxel equivalent)
Method: The nanoparticulate squalenoylpaclitaxel suspension as prepared in Example 3 (4 mg/ml) is directly injected intravenously into mice (C57BL6) at a dose of 4×50 mg/kg (paclitaxel equivalent); the injections take place on days 0, 5, 9 and 14. […] The direct intravenous injection of the Taxol solution (without dilution in 0.9% NaCl) leads to the immediate death of 100% of the treated mice. When the Taxol solution is prediluted in 0.9% NaCl, the maximum dose that can be injected is 20 mg/kg.

KB 3.1 cells = experiment: Tubulin immunofluorescence (spindle-poisoning activity) by confocal fluorescence microscopy; type: cell-based, human; conditions: nanoparticles 5 μM, 14-16 hours, FIG. 1B
Method: The characterization of this activity is performed by immunofluorescence according to the following protocol:
Day 1: KB 3.1 cells originating from a human cervical carcinoma, and HT-29 cells corresponding to a human colon cancer cell line, are deposited on 6-well plates at a density of 20 000 cells/well (final volume 2 ml RPMI plus FCS). The cells are incubated at a temperature of 37° C. and at 5% CO2.
Day 2: The cells are rinsed and the squalenoylpaclitaxel nanoparticles (concentration 5 μM) as prepared according to the protocol described in Example 3 are added thereto.
Day 3: After 14-16 hours, rinsing is performed twice with PBS and the extraction solution (Triton X-100 plus 0.5% PEM-PIPES 100 mM, EGTA 2 mM, MgCl2 2 mM, pH 6.8) is then added. After 4 minutes, rinsing is performed, followed by addition of 2 ml of a 3% solution of formaldehyde in PEM. 40 minutes later, rinsing is performed and 20% FCS in PBS is added over 30 minutes. Murine anti-α-tubulin FITC monoclonal antibody (diluted to 1:200) is then added and the mixture is incubated for 1 hour. It is finally rinsed with PBS and an analysis by confocal fluorescence microscopy (Leica TCS SP2) is performed.

[2] = tested on: Madison's 109 (M109) murine pulmonary tumor cell line; experiment: In vitro anticancer activity, MTT test on M109 cells; type: cell-based; conditions: 72 hours, nanoparticles, read-out: 50% inhibitory concentration (IC50)
Method: (§1) The in vitro anticancer activity of the conjugates of squalenoyl/paclitaxel type in the form of nanoparticles is performed on Madison's 109 (M109) murine pulmonary tumor cell line. The M109 cells are cultured in RPMI 1640, supplemented with 10% fetal calf serum, 50 U·ml^−1 of penicillin and 50 μg·ml^−1 of streptomycin and 2 mM of L-glutamine. This analysis is performed using the 3-[4,5-dimethylthiazol-2-yl]-3,5-diphenyltetrazolium bromide (MTT) test, which measures the mitochondrial dehydrogenase activity. The cells in exponential growth phase are inoculated into a 96-well plate and preincubated for 24 hours at 37° C. in a humidified atmosphere with 5% CO2 in the air. Various dilutions of paclitaxel nanoparticles are added to the cells in the culture medium. Each dilution is tested three times. After 72 hours at 37° C., 200 μL of MTT solution in the cell culture medium (0.5 mg/ml) are added to each well. After incubating for 2 hours 30 minutes at 37° C., the culture medium is removed and the formazan crystals obtained are dissolved in 200 μL of an extraction solution (dimethyl sulfoxide). The absorbing power of the transformed dyestuff, which is proportional to the number of viable cells, is measured at 570 nm using a microplate reader (Metertech Σ 960, Fisher Bioblock, Illkirch, France). The percentage of surviving cells is calculated by determining the ratio of the absorbing power between the treated cells and the untreated cells.

[3] = tested on: M109 subcutaneous tumoral model (murine pulmonary tumor); experiment: In vivo anticancer activity, M109 subcutaneous tumoral model; conditions: 160 mg·kg^−1 i.v. for 5 consecutive days, CD2F1 mice, FIG. 2
Excerpt: CD2F1 mice (4-5 weeks old) weighing about 15-18 g were used for this study. The mice are fed with standard mouse feed and water ad libitum. The M109 subcutaneous tumoral model (murine pulmonary tumor) is developed by injecting the M109 cells at exponential growth (1×10^6 cells) as a suspension, under the skin, into the lower portion of the abdomen of the mice. A palpable tumor (about 50-100 mm^3) is allowed to grow at the site of injection. The tumor-bearing mice are divided into 2 groups of 5-6, i.e. the untreated mice and the mice treated with squalenoyldiglycolyl-paclitaxel nanoparticles 160 mg·kg^−1 (injected intravenously for 5 consecutive days). The mice are controlled regularly to check the difference in the volume of the tumors, and thus to evaluate the anticancer efficacy.

[4] = tested on: L1210 WT murine leukemia cell line; experiment: In vitro anticancer activity, MTT test on L1210 WT cells; type: cell-based; conditions: Mus musculus, 72 hours, nanoparticles, read-out: 50% inhibitory concentration (IC50)
Method: as §1, with “After incubating for 2 hours 30 minutes at 37° C., the culture medium is removed and the formazan crystals obtained are dissolved in 200 μL of an extraction solution (dimethyl sulfoxide).” left out
The in vitro anticancer activity of the squalenoyldoxorubicin nanoparticles is evaluated on an L1210 WT murine leukemia cell line. […]

[5] = tested on: L1210 aggressive metastatic leukemia model; experiment: In vivo anticancer activity, L1210 aggressive metastatic leukemia model; conditions: 13 mg·kg^−1 i.v. on days 1, 7 and 14, DBA/2 mice
Excerpt: DBA/2 mice (4 to 5 weeks old) weighing about 15-18 g were used for this study. As for Example 17, the mice are fed with standard mouse feed and water ad libitum. The L1210 aggressive metastatic leukemia model (a murine leukemia) is developed by intravenously injecting the L1210 cells at exponential growth (0.1×10^6 cells) as a suspension, into the mice. The tumor-bearing mice are divided into 2 groups of 5-6, i.e. the untreated mice and the mice treated with squalenoyldoxorubicin nanoparticles (13 mg·kg^−1, injected intravenously on days 1, 7 and 14, after injection of the tumor cells). After treatment, the mice are controlled regularly to check the differences in weight and the survival rate, these parameters making it possible to evaluate the efficacy of the anticancer activity.

[6] = 20° C., zetasizer, diluted in MilliQ water, compositions of Example 15
[7] = Example 9: 100 μl of 4 mg/ml ethanol solution added to 2 ml distilled water

Molecule: monosqualenoylpaclitaxel
Polydispersity index ([1]; 0.36 mmol squalenoylpaclitaxel in 0.25 ml THF added to 0.25 ml water): 0.39
Polydispersity index ([1]; 0.88 mmol squalenoylpaclitaxel in 0.25 ml THF added to 0.25 ml water): 0.30
Polydispersity index ([1]; 1.76 mmol squalenoylpaclitaxel in 0.25 ml THF added to 0.25 ml water): 0.31
Diameter ([1]; 0.36 squalenoylpaclitaxel in 0.25 ml THF added to 0.25 ml water): 151 ± 84 nm
Diameter ([1]; 0.88 squalenoylpaclitaxel in 0.25 ml THF added to 0.25 ml water): 169 ± 92 nm
Diameter ([1]; 1.76 squalenoylpaclitaxel in 0.25 ml THF added to 0.25 ml water): 177 ± 99 nm
Signs of toxicity (mice (C57BL6); days 0, 5, 9 and 14, C57BL6 mice): do not show any sign of toxicity
Mortality (mice (C57BL6); days 0, 5, 9 and 14, period of at least one month): No mortality is recorded
Formation of tubulin lumps (spindle-poisoning activity) (KB 3.1 cells): formation of tubulin lumps is clearly visible

Molecule: Squalenoyldiglycolyl-paclitaxel [Example 11]
Mean particle diameter [1, 6]: 150.0 nm
Polydispersity index [1, 6]: 0.075
IC50 [2]: 175 nM
Anticancer activity: progression of tumor volume [3]: show anticancer activity by controlling the progression of the M109 tumors

Polydispersity index [1, 7]: 0.12
Size of nanoparticles [1, 7]: 162 nm
Surface potential [1, 7]: 27.38±2.60 mV
Molecule: CC(C)=CCC/C(C)=C/CC/C(C)=C/CC/C=C(\C)CC/C=C(\C)CCC(=O)NCCCNCCCCNC(=O)C(O)NC(=O)CCCCCCNC(=N)N (stereo not drawn) [squalenoyldeoxyspergualine]

Molecule: Squalenoylsuccinyl-PEG340-paclitaxel [Example 12]
Mean particle diameter [1, 6]: 643.9 nm
Polydispersity index [1, 6]: 0.081
IC50 [2]: 490 nM

Molecule: COc1cccc2c1C(=O)c1c(O)c3c(c(O)c1C2=O)CC(O)(C(=O)COC(=O)CC/C(C)=C/CC/C(C)=C/CC/C=C(\C)CC/C=C(\C)CCC=C(C)C)CC3OC1CC(N)C(O)C(C)O1 (stereo not drawn) [Example 14, 14-squalenoyldoxorubicin]
Mean particle diameter [1, 6]: 138.2 nm
Polydispersity index [1, 6]: 0.325
IC50 [4]: 291 nM
Anticancer activity (variations in weight of mice) ([5]; FIG. 3): demonstrate effective anticancer activity
Survival rate ([5]; FIG. 4): improved survival rate

Molecule: squalenoylsuccinylpaclitaxel [Example 10]
Mean particle diameter [1, 6]: 250.9 nm
Polydispersity index [1, 6]: 0.061
IC50 [2]: 72 nM

Molecule: squalenoylC22-paclitaxel [Example 13]
Mean particle diameter [1, 6]: 239.3 nm
Polydispersity index [1, 6]: 0.077
IC50 [2]: 7300 nM
